{
  "source": "patent US8188287B2",
  "about": "“Piperidyl acrylamide antagonists of CCR2” (Janssen Pharmaceutica N.V., priority 2008, dated 2012)",
  "data": [
    {"target": "T1, CCR2 (Homo sapiens, UniProt P41597)", "T1 construct": "host or cells: THP-1 (human monocytic cell line)", "T1 sequence (P41597 whole entry)": "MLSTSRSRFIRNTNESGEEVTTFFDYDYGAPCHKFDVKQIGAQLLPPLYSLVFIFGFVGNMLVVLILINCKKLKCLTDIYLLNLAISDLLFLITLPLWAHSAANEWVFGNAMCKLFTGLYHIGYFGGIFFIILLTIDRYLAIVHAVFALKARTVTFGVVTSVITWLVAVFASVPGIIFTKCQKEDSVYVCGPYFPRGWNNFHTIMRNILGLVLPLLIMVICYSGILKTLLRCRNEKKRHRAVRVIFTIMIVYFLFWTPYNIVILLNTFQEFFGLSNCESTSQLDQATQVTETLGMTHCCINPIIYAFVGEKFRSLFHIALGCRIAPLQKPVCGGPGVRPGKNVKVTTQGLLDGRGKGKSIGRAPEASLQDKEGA", "experiment": "MCP-1 Receptor Binding Assay in THP-1 Cells", "settings": "125I labeled MCP-1 0.5 nM, 2 hours at 30° C., read-out: Inhibition of MCP-1 Binding IC50", "method": "(§1) MCP-1 Receptor Binding Assay in THP-1 Cells\n(§2) Human monocytic cell line THP-1 cells were obtained from American Type Culture Collection (Manassas, Va., USA). The THP-1 cells were grown in RPMI-1640 (RPMI: Roswell Park Memorial Institute Medium-cell culture growth media) supplemented with 10% fetal bovine serum in a humidified 5% CO2 atmosphere at 37° C. The cell density was maintained […].\n(§3) THP-1 (cells were incubated with 0.5 nM ^125I labeled MCP-1 (Perkin-Elmer Life Sciences, Inc. Boston, Mass.) in the presence of varying concentrations of either unlabeled MCP-1 (R & D Systems, Minneapolis, Minn.) or test compound for 2 hours at 30° C. in a 96 well plate. Cells were then harvested onto a filter plate, dried, and 20 μL of Microscint 20 was added to each well. Plates were counted in a TopCount NXT, Microplate Scintillation & Luminescence Counter (Perkin-Elmer Life Sciences, Inc. Boston, Mass.). Blank values (buffer only) were subtracted from all values and drug treated values were compared to vehicle treated values. 1 μM cold MCP-1 was used for nonspecific binding.\n(§4) Table 1 lists IC50 values for inhibition of MCP-1 binding to CCR2 obtained for test compounds of the invention. Where an IC50 value was not obtained for a particular compound, the percent inhibition is provided at a test concentration of 25 μM. TABLE 1 Inhibition of MCP-1 Binding IC50 (μM)", "units": {"IC50": "nM"}, "values": [
      {"smiles": "O=C(O)C(NN1CCC(c2c[nH]c3ccccc23)CC1)C1CCN(C(=O)/C=C/c2cc(F)c(F)c(F)c2)CC1", "note": "(racemic) [Compound 5d, [4-(1H-Indol-3-yl)-piperidin-1-ylamino]-{1-[3-(3,4,5-trifluoro-phenyl)-acryloyl]-piperidin-4-yl}-acetic acid]", "IC50": 640},
      {"smiles": "O=C(/C=C/c1cc(F)c(F)c(F)c1)N1CCC(NN2CCC(c3c[nH]c4ccccc34)CC2)CC1", "note": "[Compound 3a, 1-{4-[4-(1H-Indol-3-yl)-piperidin-1-ylamino]-piperidin-1-yl}-3-(3,4,5-trifluoro-phenyl)-propenone]", "IC50": 1600},
      {"smiles": "O=C(/C=C/c1cc(F)c(F)c(F)c1)N1CCC(N(CC(O)CO)N2CCC(c3c[nH]c4ccccc34)CC2)CC1", "note": "(stereo not shown) [Compound 4d, 1-(4-{(2,3-Dihydroxy-propyl)-[4-(1H-indol-3-yl)-piperidin-1-yl]-amino}-piperidin-1-yl)-3-(3,4,5-trifluoro-phenyl)-propenone]", "IC50": 1400}
    ]},
    {"target": "T1, CCR2", "experiment": "MCP-1 Receptor Binding Assay in THP-1 Cells", "settings": "test concentration of 25 μM, 125I labeled MCP-1 0.5 nM", "method": "as §1, §2, §3, §4", "units": {"Inhibition of MCP-1 Binding Inh (%)": "%"}, "values": [
      {"smiles": "CN(C1CCN(C(=O)/C=C/c2cc(F)c(F)c(F)c2)CC1)N1CCC(c2c[nH]c3ccccc23)CC1", "note": "[Compound 4a, 1-(4-{[4-(1H-Indol-3-yl)-piperidin-1-yl]-methyl-amino}-piperidin-1-yl)-3-(3,4,5-trifluoro-phenyl)-propenone]", "Inhibition of MCP-1 Binding Inh (%)": 59},
      {"smiles": "CCN(C1CCN(C(=O)/C=C/c2cc(F)c(F)c(F)c2)CC1)N1CCC(c2c[nH]c3ccccc23)CC1", "note": "[Compound 4b, 1-(4-{Ethyl-[4-(1H-indol-3-yl)-piperidin-1-yl]-amino}-piperidin-1-yl)-3-(3,4,5-trifluoro-phenyl)-propenone]", "Inhibition of MCP-1 Binding Inh (%)": 34},
      {"smiles": "CC(C)CN(C1CCN(C(=O)/C=C/c2cc(F)c(F)c(F)c2)CC1)N1CCC(c2c[nH]c3ccccc23)CC1", "note": "[Compound 4c, 1-(4-{[4-(1H-Indol-3-yl)-piperidin-1-yl]-isobutyl-amino}-piperidin-1-yl)-3-(3,4,5-trifluoro-phenyl)-propenone]", "Inhibition of MCP-1 Binding Inh (%)": 0},
      {"smiles": "O=C(/C=C/c1cc(F)c(F)c(F)c1)N1CCC(N(Cc2ncc[nH]2)N2CCC(c3c[nH]c4ccccc34)CC2)CC1", "note": "[Compound 4e, 1-(4-{(1H-Imidazol-2-ylmethyl)-[4-(1H-indol-3-yl)-piperidin-1-yl]-amino}-piperdin-1-yl)-3-(3,4,5-trifluoro-phenyl)-propenone]", "Inhibition of MCP-1 Binding Inh (%)": 20}
    ]}
  ]
}
